{
  "source": "patent US7087620B2",
  "about": "“Liquid pharmaceutical formulations containing 3,7-diazabicyclo[3,3,1]nonane compounds and methods of treatment relating to anti-arrhythmic events” (Solvay Pharmaceuticals GmbH, priority 2002, dated 2006)",
  "type_in_all_cases": "in vivo, human",
  "key": {"[1]": {"tested_on": "patients with atrial flutter", "assay": "Placebo-controlled ascending dose study of intravenous tedisamil: conversion to normal sinus rhythm, patients with atrial flutter", "conditions": "for Conversion to NSR at any time within 2.5 hrs after the start of infusion (patients converted out of total) / Conversion to NSR at any time within 2.5 hrs after the start of infusion (percentage of patients) / Conversion to NSR at any time within 2.5 hrs and remaining in NSR until 2.5 hrs after the start of infusion (patients out of total) / Conversion to NSR at any time within 2.5 hrs and remaining in NSR until 2.5 hrs after the start of infusion (percentage of patients) / Conversion to NSR at any time within 2.5 hrs and remaining in NSR until 24 hrs after the start of infusion (patients out of total) / Conversion to NSR at any time within 2.5 hrs and remaining in NSR until 24 hrs after the start of infusion (percentage of patients) / Conversion to NSR at any time within 24 hrs after the start of infusion (patients out of total) / Conversion to NSR at any time within 24 hrs after the start of infusion (percentage of patients) / Conversion to NSR at any time within 24 hrs and remaining in NSR until 24 hrs after the start of infusion (patients out of total) / Conversion to NSR at any time within 24 hrs and remaining in NSR until 24 hrs after the start of infusion (percentage of patients): patients with atrial flutter; for Conversion to NSR at any time within 2.5 hrs after start of infusion (converted/total) / Conversion to NSR at any time within 2.5 hrs after start of infusion (%): Atrial Flutter, ITT patient sample, patients with DC cardioversion excluded", "protocol": "(§1) A Multi-Center, Double-Blind, Randomized, Placebo-Controlled, Sequential Ascending Dose Groups Study to evaluate the Efficacy and Safety of Intravenous Tedisamil in the Rapid Conversion to Normal Sinus Rhythm in Patients with Atrial Fibrillation or Flutter was performed.\n(§2) • Tedisamil (0.4 mg/kg body weight) • Tedisamil (0.6 mg/kg body weight) • Placebo • Dosages were given as a 30 minute intravenous infusion regimen. 1. Study Design\n(§3) This multicenter trial was a double-blind, randomized, placebo-controlled, ascending dose groups study comparing the efficacy and safety of intravenous tedisamil treatment versus placebo in symptomatic patients with atrial fibrillation or flutter (>3 hours and <48 hours). The primary efficacy endpoint of this study was the termination of atrial fibrillation or flutter (for at least 60 seconds) within 2.5 hours after start of the infusion.\n(§4) Following screening and baseline assessments, eligible patients were randomized to tedisamil or placebo with a sequential dose escalation approach. In the first stage, patients received 0.4 mg tedisamil/kg body weight or placebo over a 30 minutes infusion period, with half the dose infused during the first 10 minutes and half the dose infused over the remaining 20 minutes. After interim safety evaluation, in the second stage, patients received 0.6 mg tedisamil/kg body weight or placebo, with the same infusion regimen.\n(§5) Patients were discharged from the telemetry unit 24 hours post infusion and safety follow up was to be obtained after 28 days. Blinded reviews of 12-lead ECGs (including 60 seconds rhythm strip) and 24 hour Holters to adjudicate the clinical endpoint (conversion to normal sinus rhythm) were performed centrally according to standard guidelines.\n(§6) Tedisamil dihydrochloride, 0.4 mg/kg body weight, 0.6.mg/kg body weight was administered intravenously. The total infusion time was 30 minutes, with half the dose infused within 10 minutes, and half the dose infused within the remaining 20 minutes.\n(§7) The percentage of patients converted to normal sinus rhythm (for at least 60 seconds) at any time within 2.5 hours after the initiation of the infusion of study drug.\n(§8) 6.1.2 Secondary Efficacy • The percentage of patients converted to normal sinus rhythm (for at least 60 seconds) at any time within 2.5 hrs and remaining in sinus rhythm until 2.5 hours after initiation of the intravenous infusion of tedisamil versus placebo. • The percentage of patients converted to normal sinus rhythm (for at least 60 seconds) at any time within 24 hours after initiation of the intravenous infusion of tedisamil versus placebo. • The percentage of patients converted to normal sinus rhythm (for at least 60 seconds) at any time within 24 hrs and remaining in sinus rhythm until 24 hours after initiation of the intravenous infusion of tedisamil versus placebo. • The percentage of patients converted to normal sinus rhythm (for at least 60 seconds) at any time within 2.5 hrs and remaining in sinus rhythm until 24 hours after initiation of the intravenous infusion of tedisamil versus placebo. • The time to conversion after the start of the infusion of tedisamil versus placebo. • The dose- and concentration-response relationships of tedisamil versus placebo.\n(§9) The intent-to-treat patient sample was analyzed for efficacy. All tests were two-sided and a p-value <0.05 was considered significant. Differences in percentages of conversion were compared among the treatment groups using the Pearson chi-square statistic. Safety analysis was conducted on the safety patient sample. Numbers and percentages of patients with adverse events were calculated for each treatment group, using MedDRA preferred terms and body systems. Descriptive statistics were summarized by treatment group for changes from baseline in QT, heart rate and blood pressure. […]"}, "[2]": {"tested_on": "patients with atrial fibrillation or flutter", "assay": "Safety and tolerability of intravenous tedisamil in patients with atrial fibrillation or flutter", "protocol": "The safety objective was: To determine the safety and tolerability of tedisamil versus placebo.\nSafety was monitored regarding: Physical examination, ECG, 24-hour Holter monitoring, vital signs, laboratory evaluations and adverse events.\nThe intent-to-treat patient sample was analyzed for efficacy. All tests were two-sided and a p-value <0.05 was considered significant. Differences in percentages of conversion were compared among the treatment groups using the Pearson chi-square statistic. Safety analysis was conducted on the safety patient sample. Numbers and percentages of patients with adverse events were calculated for each treatment group, using MedDRA preferred terms and body systems. Descriptive statistics were summarized by treatment group for changes from baseline in QT, heart rate and blood pressure.\nPhysical examination, ECG, 24-hour Holter monitoring, vital signs, laboratory evaluations and adverse events."}, "[3]": {"tested_on": "patients with atrial fibrillation", "assay": "Placebo-controlled ascending dose study of intravenous tedisamil: conversion to normal sinus rhythm, patients with atrial fibrillation", "conditions": "0.4 mg/kg iv two-step 30 minute infusion; patients with atrial fibrillation", "protocol": "as §1, §2, §3, §4, §5, §6, §7, §8, §9"}, "[4]": {"conditions": "0.4 mg/kg iv two-step 30 minute infusion"}, "[5]": {"conditions": "0.6 mg/kg iv two-step 30 minute infusion"}, "[6]": {"conditions": "two-step infusion regimen, 0.4 and 0.6 mg/kg"}},
  "data": [
    {"smiles": "C1CCC2(C1)C1CN(CC3CC3)CC2CN(CC2CC2)C1", "note": "[Tedisamil, N,N′-dicyclopropylmethyl-9,9-tetramethylene-3,7-diazabicyclo[3,3,1]nonane]", "values": [
      {"measurement": "Conversion to NSR at any time within 2.5 hrs after the start of infusion (patients converted out of total)", "setting": "[1]; [4]", "value": "1 out of 9"},
      {"measurement": "Conversion to NSR at any time within 2.5 hrs after the start of infusion (percentage of patients)", "setting": "[1]; [4]", "value": "(11%)"},
      {"measurement": "Conversion to NSR at any time within 2.5 hrs and remaining in NSR until 2.5 hrs after the start of infusion (patients out of total)", "setting": "[1]; [4]", "value": "1 out of 9"},
      {"measurement": "Conversion to NSR at any time within 2.5 hrs and remaining in NSR until 2.5 hrs after the start of infusion (percentage of patients)", "setting": "[1]; [4]", "value": "(11%)"},
      {"measurement": "Conversion to NSR at any time within 2.5 hrs and remaining in NSR until 24 hrs after the start of infusion (patients out of total)", "setting": "[1]; [4]", "value": "1 out of 7"},
      {"measurement": "Conversion to NSR at any time within 2.5 hrs and remaining in NSR until 24 hrs after the start of infusion (percentage of patients)", "setting": "[1]; [4]", "value": "(14%)"},
      {"measurement": "Conversion to NSR at any time within 24 hrs after the start of infusion (patients out of total)", "setting": "[1]; [4]", "value": "2 out of 7"},
      {"measurement": "Conversion to NSR at any time within 24 hrs after the start of infusion (percentage of patients)", "setting": "[1]; [4]", "value": "(29%)"},
      {"measurement": "Conversion to NSR at any time within 24 hrs and remaining in NSR until 24 hrs after the start of infusion (patients out of total)", "setting": "[1]; [4]", "value": "2 out of 7"},
      {"measurement": "Conversion to NSR at any time within 24 hrs and remaining in NSR until 24 hrs after the start of infusion (percentage of patients)", "setting": "[1]; [4]", "value": "(29%)"},
      {"measurement": "Conversion to NSR at any time within 2.5 hrs after the start of infusion (percentage of patients)", "setting": "[1]; 0.4 mg/kg iv two-step 30 minute infusion, listed as tedisamil", "value": 11, "unit": "%"},
      {"measurement": "Conversion to NSR at any time within 2.5 hrs after the start of infusion (patients converted out of total)", "setting": "[1]; [5]", "value": "3 out of 11"},
      {"measurement": "Conversion to NSR at any time within 2.5 hrs after the start of infusion (percentage of patients)", "setting": "[1]; [5]", "value": "(27%)"},
      {"measurement": "Conversion to NSR at any time within 2.5 hrs and remaining in NSR until 2.5 hrs after the start of infusion (patients out of total)", "setting": "[1]; [5]", "value": "3 out of 11"},
      {"measurement": "Conversion to NSR at any time within 2.5 hrs and remaining in NSR until 2.5 hrs after the start of infusion (percentage of patients)", "setting": "[1]; [5]", "value": "(27%)"},
      {"measurement": "Conversion to NSR at any time within 2.5 hrs and remaining in NSR until 24 hrs after the start of infusion (patients out of total)", "setting": "[1]; [5]", "value": "3 out of 7"},
      {"measurement": "Conversion to NSR at any time within 2.5 hrs and remaining in NSR until 24 hrs after the start of infusion (percentage of patients)", "setting": "[1]; [5]", "value": "(43%)"},
      {"measurement": "Conversion to NSR at any time within 24 hrs after the start of infusion (patients out of total)", "setting": "[1]; [5]", "value": "3 out of 7"},
      {"measurement": "Conversion to NSR at any time within 24 hrs after the start of infusion (percentage of patients)", "setting": "[1]; [5]", "value": "(43%)"},
      {"measurement": "Conversion to NSR at any time within 24 hrs and remaining in NSR until 24 hrs after the start of infusion (patients out of total)", "setting": "[1]; [5]", "value": "3 out of 7"},
      {"measurement": "Conversion to NSR at any time within 24 hrs and remaining in NSR until 24 hrs after the start of infusion (percentage of patients)", "setting": "[1]; [5]", "value": "(43%)"},
      {"measurement": "Conversion to NSR at any time within 2.5 hrs after the start of infusion (percentage of patients)", "setting": "[1]; 0.6 mg/kg iv two-step 30 minute infusion, listed as tedisamil", "value": 27, "unit": "%"},
      {"measurement": "Conversion to NSR at any time within 2.5 hrs after start of infusion (converted/total)", "setting": "[1]; Female, 0.4 mg/kg", "value": "0/2"},
      {"measurement": "Conversion to NSR at any time within 2.5 hrs after start of infusion (%)", "setting": "[1]; Female, 0.6 mg/kg", "value": 33.3, "unit": "%"},
      {"measurement": "Conversion to NSR at any time within 2.5 hrs after start of infusion (converted/total)", "setting": "[1]; Female, 0.6 mg/kg", "value": "2/6"},
      {"measurement": "Conversion to NSR at any time within 2.5 hrs after start of infusion (%)", "setting": "[1]; Male, 0.4 mg/kg", "value": 14.3, "unit": "%"},
      {"measurement": "Conversion to NSR at any time within 2.5 hrs after start of infusion (converted/total)", "setting": "[1]; Male, 0.4 mg/kg", "value": "1/7"},
      {"measurement": "Conversion to NSR at any time within 2.5 hrs after start of infusion (%)", "setting": "[1]; Male, 0.6 mg/kg", "value": 20.0, "unit": "%"},
      {"measurement": "Conversion to NSR at any time within 2.5 hrs after start of infusion (converted/total)", "setting": "[1]; Male, 0.6 mg/kg", "value": "1/5"},
      {"measurement": "TdP (Torsade de Point)", "setting": "[2]; 30 min regimen, by gender", "value": "Almost all observed TdP (Torsade de Point) in 30 min regimen were in female patients"},
      {"measurement": "Gender difference in safety issues", "setting": "[2]; first study (Phase II)", "value": "male patients show less safety issues than female patients"},
      {"measurement": "DC cardioversion required for treatment of VTs", "setting": "[2]; [6]", "value": "no patient required DC cardioversion for treatment of VTs"},
      {"measurement": "Sustained polymorphic VT", "setting": "[2]; [6]", "value": "no sustained polymorphic VT were observed"},
      {"measurement": "Tolerability in patients", "setting": "[2]; [6]", "value": "well tolerated"},
      {"measurement": "Conversion to NSR at any time within 2.5 hrs after the start of infusion (patients converted out of total)", "setting": "[3]", "value": "24 out of 52"},
      {"measurement": "Conversion to NSR at any time within 2.5 hrs and remaining in NSR until 2.5 hrs after the start of infusion (patients out of total)", "setting": "[3]", "value": "23 out of 52"},
      {"measurement": "Conversion to NSR at any time within 2.5 hrs and remaining in NSR until 2.5 hrs after the start of infusion (percentage of patients)", "setting": "[3]", "value": "(44%)"},
      {"measurement": "Conversion to NSR at any time within 2.5 hrs and remaining in NSR until 24 hrs after the start of infusion (patients out of total)", "setting": "[3]", "value": "22 out of 42"},
      {"measurement": "Conversion to NSR at any time within 2.5 hrs and remaining in NSR until 24 hrs after the start of infusion (percentage of patients)", "setting": "[3]", "value": "(52%)"}
    ]}
  ]
}
